In the NIST ThermoML archive (doi:10.1021/je0604030):
± gives the expanded uncertainty stated by the source.

Conditions: Liquid, Ebulliometric method (Recirculating still)

SMILES	vapor or sublimation pressure (159.61 K) [kPa]	vapor or sublimation pressure (161.58 K) [kPa]	vapor or sublimation pressure (169.38 K) [kPa]	vapor or sublimation pressure (173.9 K) [kPa]	vapor or sublimation pressure (178.93 K) [kPa]
FC(F)(F)F [tetrafluoromethane]	243 ± 8	269 ± 9	431 ± 14	517 ± 17	651 ± 21
C [methane]	1567 ± 50	1695 ± 54	2276 ± 73	2672 ± 86	3170 ± 100
